Experimental findings from patent publication US7326703B2, “(1,10B-Dihydro-2-(aminocarbonyl-phenyl)-5H-pyrazolo[1,5-c][1,3]benzoxazin-5-yl)phenyl methanone derivatives as HIV viral replication inhibitors” (priority 2004, dated 2008) are described below.

Where two headings read alike, the source gives them in different places. Where only a bound is given, the exact number is not on record here.

One assay concerns HIV-1 strain LAI. The assay can be described thus: Cellular anti-viral assay in MT4-LTR-EGFP cells, wild type HIV-1 strain LAI. It is filed as cell-based. Particulars: Human immunodeficiency virus 1, 72 h, read-out: Activity class for HIV-1-LAI test. On the procedure: (§1) The compounds were tested in a cellular assay using the MT4-LTR-EGFP cells for anti-viral activity. […] The cellular assay was performed according to the following procedure.
(§2) HIV- or mock-infected MT4-LTR-EGFP cells were incubated for three days in the presence of various concentrations of the inhibitor. Upon infection, the GFP reporter is activated by the viral tat protein. At the end of the incubation period, the GFP signal was measured. In the virus control samples (in the absence of any inhibitor) the maximal fluorescent signal was obtained. The inhibitory activity of the compound was monitored on the virus-infected cells and was expressed as EC50 and EC90. These values represent the amount of the compound required to protect 50% and 90%, respectively, of the cells from virus infection. The toxicity of the compound was measured on the mock-infected cells and was expressed as CC50, which represents the concentration of compound required to inhibit the growth of the cells by 50%. The selectivity index (SI) (ratio CC50/EC50) is an indication of the selectivity of the anti-HIV activity of the inhibitor.

Another assay relates to HIV-1-MDR. The assay can be described thus: Cellular anti-viral assay in MT4-LTR-EGFP cells, multi-drug resistant HIV-1 virus. It is filed as cell-based. The note with it: Human immunodeficiency virus 1, 72 h, read-out: Activity class for HIV-1-MDR test. On the procedure:
as §1, §2

Where [1] appears, read: MT4-LTR-EGFP cells, three days incubation, GFP signal, average EC50 used where more than one run.

As to `CSc1ccc(C(=O)C2Oc3ccccc3C3CC(c4ccc(C(=O)NC5CCCC5)cc4)=NN23)cc1` (stereo not shown) [Compound 46], the EC50 with HIV-1 strain LAI (setting [1]) and in the assay with HIV-1-MDR was under 1 µM each time.

As to `COc1cccc(CNC(=O)c2ccc(C3=NN4C(C(=O)c5ccc(F)cc5)Oc5ccccc5C4C3)cc2)c1` (stereo not shown) [Compound 24], the EC50 in the assay with HIV-1 strain LAI (setting [1]) and in the assay on HIV-1-MDR was 1 to 10 µM throughout.

For `O=C(NC1CCCC1)c1ccc(C2=NN3C(C(=O)c4ccc(N5CCOCC5)cc4)Oc4ccccc4C3C2)cc1` (stereo not shown) [Compound 48], the EC50 in the assay with HIV-1 strain LAI (setting [1]) and in the assay on HIV-1-MDR was 1 to 10 µM in each case.

`COc1ccc(C(=O)C2Oc3ccccc3C3CC(c4ccc(C(=O)NC5CCCC5)cc4)=NN23)cc1` (stereo not shown) [Compound 51]: the EC50 with HIV-1-MDR is under 1 µM.

Regarding `O=C(c1ccc(F)cc1)C1Oc2ccccc2C2CC(c3ccc(C(=O)N4CCCCCC4)cc3)=NN12` (stereo not shown) [Compound 17], the EC50 in the assay on HIV-1 strain LAI (setting [1]) is under 1 µM; with HIV-1-MDR, over 10 µM.

`O=C(NC1CCCC1)c1ccc(C2=NN3C(C(=O)c4ccc(C(F)(F)F)cc4)Oc4ccccc4C3C2)cc1` (stereo not shown) [Compound 55]: the EC50 with HIV-1 strain LAI (setting [1]) and with HIV-1-MDR was under 1 µM each time.

For `CC(C)CC(C)NC(=O)c1ccc(C2=NN3C(C(=O)c4ccc(F)cc4)Oc4ccccc4C3C2)cc1` (stereo not shown) [Compound 22], the EC50 is under 1 µM in the assay with HIV-1 strain LAI (setting [1]) and over 10 µM with HIV-1-MDR.

`COc1ccc(CNC(=O)c2ccc(C3=NN4C(C(=O)c5ccc(F)cc5)Oc5ccccc5C4C3)cc2)cc1` (stereo not shown) [Compound 21]: the EC50 in the assay with HIV-1 strain LAI (setting [1]) and in the assay on HIV-1-MDR was over 10 µM each time.

Regarding `O=C(NC1CCCC1)c1ccc(C2=NN3C(C(=O)c4ccc(F)cc4)Oc4ccccc4C3C2)cc1` (stereo not shown) [Compound 18], in the assay with HIV-1 strain LAI (setting [1]), the EC50 is under 1 µM.

`O=C(NCC1CCCO1)c1ccc(C2=NN3C(C(=O)c4ccc(F)cc4)Oc4ccccc4C3C2)cc1` (stereo not shown) [Compound 12]: the results for the EC50 with HIV-1 strain LAI (setting [1]) and with HIV-1-MDR were 1 to 10 µM and over 10 µM, respectively.

For the compound `O=C(NCCc1ccccn1)c1ccc(C2=NN3C(C(=O)c4ccc(Br)cc4)Oc4ccccc4C3C2)cc1` (stereo not shown) [Compound 7], the EC50 with HIV-1 strain LAI (setting [1]) was 1 to 10 µM; with HIV-1-MDR it was over 10 µM.

As to `CN(C)CCNC(=O)c1ccc(C2=NN3C(C(=O)c4ccc(F)cc4)Oc4ccccc4C3C2)cc1` (stereo not shown) [Compound 13], the EC50 was 1 to 10 µM in the assay with HIV-1 strain LAI (setting [1]) and over 10 µM in the assay on HIV-1-MDR.

Regarding `CN(C)c1ccc(NC(=O)c2ccc(C3=NN4C(C(=O)c5ccc(F)cc5)Oc5ccccc5C4C3)cc2)cc1` (stereo not shown) [Compound 27], the EC50 with HIV-1 strain LAI (setting [1]) and in the assay with HIV-1-MDR was under 1 µM each time.

With `COc1ccc(CNC(=O)c2ccc(C3=NN4C(C(=O)c5ccc(Br)cc5)Oc5ccccc5C4C3)cc2)cc1` (stereo not shown) [Compound 5], the EC50 is under 1 µM with HIV-1 strain LAI (setting [1]) and over 10 µM in the assay on HIV-1-MDR.

As to `O=C(NC1CCCC1)c1ccc(C2=NN3C(C(=O)c4ccc(Br)cc4)Oc4ccccc4C3C2)cc1` (stereo not shown) [Compound 6], the EC50 with HIV-1 strain LAI (setting [1]) is under 1 µM; in the assay with HIV-1-MDR, over 10 µM.

Consider `O=C(c1ccc(F)cc1)C1Oc2ccccc2C2CC(c3ccc(C(=O)N4CCN(Cc5ccccc5)CC4)cc3)=NN12` (stereo not shown) [Compound 15], for which the EC50 with HIV-1 strain LAI (setting [1]) and in the assay on HIV-1-MDR was over 10 µM throughout.

Consider `O=C(NCc1ccccn1)c1ccc(C2=NN3C(C(=O)c4ccc(F)cc4)Oc4ccccc4C3C2)cc1` (stereo not shown) [Compound 16], for which the EC50 in the assay with HIV-1 strain LAI (setting [1]) and with HIV-1-MDR was over 10 µM each time.

Consider `CN(C(=O)c1ccc(C2=NN3C(C(=O)c4ccc(F)cc4)Oc4ccccc4C3C2)cc1)C1CCCCC1` (stereo not shown) [Compound 36], for which the EC50 in the assay with HIV-1 strain LAI (setting [1]) was under 1 µM.

Consider `O=C(c1ccc(F)cc1)C1Oc2ccccc2C2CC(c3ccc(C(=O)N4CCc5ccccc5C4)cc3)=NN12` (stereo not shown) [Compound 11], for which the EC50 in the assay with HIV-1 strain LAI (setting [1]) and in the assay with HIV-1-MDR was over 10 µM each time.

In the case of `C=CCN(C(=O)c1ccc(C2=NN3C(C(=O)c4ccc(F)cc4)Oc4ccccc4C3C2)cc1)C1CCCCC1` (stereo not shown) [Compound 37], the EC50 is 1 to 10 µM in the assay with HIV-1 strain LAI (setting [1]) and over 10 µM with HIV-1-MDR.

Take `CN1CCC(NC(=O)c2ccc(C3=NN4C(C(=O)c5ccc(F)cc5)Oc5ccccc5C4C3)cc2)CC1` (stereo not shown) [Compound 34]: the EC50 is 1 to 10 µM with HIV-1 strain LAI (setting [1]) and over 10 µM with HIV-1-MDR.

For `O=C(NCC1CCCCC1)c1ccc(C2=NN3C(C(=O)c4ccc(F)cc4)Oc4ccccc4C3C2)cc1` (stereo not shown) [Compound 2], the EC50 in the assay on HIV-1 strain LAI (setting [1]) and in the assay on HIV-1-MDR was over 10 µM each time.

As to `O=C(NCc1ccccn1)c1ccc(C2=NN3C(C(=O)c4ccc(Br)cc4)Oc4ccccc4C3C2)cc1` (stereo not shown) [Compound 4], the EC50 in the assay with HIV-1 strain LAI (setting [1]) was in the range of 1 to 10 µM.

On to `COc1ccccc1CNC(=O)c1ccc(C2=NN3C(C(=O)c4ccc(F)cc4)Oc4ccccc4C3C2)cc1` (stereo not shown) [Compound 23], for which the EC50 in the assay with HIV-1 strain LAI (setting [1]) and in the assay with HIV-1-MDR was over 10 µM each time.

Consider `N#Cc1ccc(C(=O)C2Oc3ccccc3C3CC(c4ccc(C(=O)NC5CCCC5)cc4)=NN23)cc1` (stereo not shown) [Compound 44, 4-[5-(4-Cyano-Benzoyl)-1,10b-Dihydro-5H-Pyrazolo[1,5-c][1,3]Benzoxazin-2-yl]-N-Cyclopentyl-Benzamide], for which the EC50 in the assay with HIV-1 strain LAI and in the assay on HIV-1-MDR was under 1 µM each time.

On to `O=C(NC1CCCC1)c1ccc(C2=NN3C(C(=O)c4ccc(C5CCCCC5)cc4)Oc4ccccc4C3C2)cc1` (stereo not shown) [Compound 54], for which the EC50 in the assay with HIV-1 strain LAI (setting [1]) and in the assay with HIV-1-MDR was 1 to 10 µM in each case.

For the compound `O=C(NCc1cccc(F)c1)c1ccc(C2=NN3C(C(=O)c4ccc(F)cc4)Oc4ccccc4C3C2)cc1` (stereo not shown) [Compound 10], the EC50 in the assay on HIV-1 strain LAI (setting [1]) and in the assay with HIV-1-MDR was over 10 µM in each case.

As to `O=C(Nc1cccnc1)c1ccc(C2=NN3C(C(=O)c4ccc(F)cc4)Oc4ccccc4C3C2)cc1` (stereo not shown) [Compound 29], the EC50 in the assay on HIV-1 strain LAI (setting [1]) is 1 to 10 µM; in the assay with HIV-1-MDR, under 1 µM.

In the case of `O=C(NCc1ccco1)c1ccc(C2=NN3C(C(=O)c4ccc(F)cc4)Oc4ccccc4C3C2)cc1` (stereo not shown) [Compound 31], the EC50 with HIV-1 strain LAI (setting [1]) and with HIV-1-MDR was 1 to 10 µM in each case.

On to `COc1ccc(NC(=O)c2ccc(C3=NN4C(C(=O)c5ccc(F)cc5)Oc5ccccc5C4C3)cc2)cc1` (stereo not shown) [Compound 26], for which the EC50 in the assay with HIV-1 strain LAI (setting [1]) and in the assay on HIV-1-MDR was 1 to 10 µM throughout.

Turning to `CC(C)(C)OC(=O)N1CCN(C(=O)c2ccc(C3=NN4C(C(=O)c5ccc(F)cc5)Oc5ccccc5C4C3)cc2)CC1` (stereo not shown) [Compound 14], the EC50 with HIV-1 strain LAI (setting [1]) and in the assay with HIV-1-MDR was over 10 µM each time.

As for `CCCc1ccc(C(=O)C2Oc3ccccc3C3CC(c4ccc(C(=O)NC5CCCC5)cc4)=NN23)cc1` (stereo not shown) [Compound 45], the EC50 with HIV-1 strain LAI (setting [1]) and in the assay on HIV-1-MDR was under 1 µM each time.

On to `CN(C)CCCNC(=O)c1ccc(C2=NN3C(C(=O)c4ccc(F)cc4)Oc4ccccc4C3C2)cc1` (stereo not shown) [Compound 3], for which the EC50 in the assay on HIV-1 strain LAI (setting [1]) and in the assay on HIV-1-MDR was over 10 µM each time.

With `CC(C)NC(=O)c1ccc(C2=NN3C(C(=O)c4ccc(F)cc4)Oc4ccccc4C3C2)cc1` (stereo not shown) [Compound 33], the EC50 with HIV-1 strain LAI (setting [1]) and in the assay on HIV-1-MDR was under 1 µM each time.

Take `CN1CCN(C(=O)c2ccc(C3=NN4C(C(=O)c5ccc(Br)cc5)Oc5ccccc5C4C3)cc2)CC1` (stereo not shown) [Compound 8]: the EC50 in the assay with HIV-1-MDR is over 10 µM.

Turning to `CN(C)CCCNC(=O)c1ccc(C2=NN3C(C(=O)c4ccc(Br)cc4)Oc4ccccc4C3C2)cc1` (stereo not shown) [Compound 9], the figures for the EC50 with HIV-1 strain LAI (setting [1]) and with HIV-1-MDR were under 1 µM and over 10 µM, respectively.

For the compound `COc1ccc(OC)c(CNC(=O)c2ccc(C3=NN4C(C(=O)c5ccc(F)cc5)Oc5ccccc5C4C3)cc2)c1` (stereo not shown) [Compound 25], the EC50 in the assay on HIV-1 strain LAI (setting [1]) and with HIV-1-MDR was 1 to 10 µM in each case.

In the case of `O=C(NC1CCCC1)c1ccc(C2=NN3C(C(=O)c4ccc(N5CCCCC5)cc4)Oc4ccccc4C3C2)cc1` (stereo not shown) [Compound 49], the EC50 with HIV-1 strain LAI (setting [1]) was over 10 µM.
